The record followed here is ChEMBL document CHEMBL3046548, “Genetic and biochemical analysis of a laboratory-selected spirodiclofen-resistant strain of Tetranychus urticae Koch (Acari: Tetranychidae)” (2009).

In brackets after ≈: the same amount, converted by molar mass. Counter-ions that a name gives are not always drawn.

The subject of experiment [1] is Tetranychus urticae. The experiment is described as follows: Insecticidal activity against spirodiclofen-resistant Tetranychus urticae SR-VP (two-spotted spider mite) adults in kidney bean leaf disks assessed as mortality measured after 2 days. The class given is functional. The following applies: foliar, 48 h.
Experiment [2] deals with Tetranychus urticae. The experiment is described as follows: Resistance ratio of LC50 for spirodiclofen-resistant Tetranychus urticae SR-VP (two-spotted spider mite) adults to LC50 for spirodiclofen-susceptible Tetranychus urticae LS-VL (two-spotted spider mite) adults. The class given is functional.
The subject of experiment [3] is Tetranychus urticae. The experiment is described as follows: Insecticidal activity against spirodiclofen-susceptible Tetranychus urticae LS-VL (two-spotted spider mite) adults in kidney bean leaf disks assessed as mortality after 2 day. The class given is functional. The conditions noted are these: foliar, 48 h.
Experiment [4] relates to Tetranychus urticae. The experiment is described as follows: Insecticidal activity against spirodiclofen-resistant Tetranychus urticae SR-VP (two-spotted spider mite) larvae in kidney bean leaf disks assessed as mortality measured after 1 day. The class given is functional. The following applies: foliar, 24 h.
For experiment [5], the system named is Tetranychus urticae. Put plainly: Insecticidal activity against spirodiclofen-susceptible Tetranychus urticae LS-VL (two-spotted spider mite) larvae in kidney bean leaf disks assessed as mortality after 1 day. In kind it is functional. The following applies: foliar, 24 h.
In experiment [6] the test system is Tetranychus urticae. Put plainly: Resistance ratio of LC50 for spirodiclofen-resistant Tetranychus urticae SR-VP (two-spotted spider mite) larvae to LC50 for spirodiclofen-susceptible Tetranychus urticae LS-VL (two-spotted spider mite) larvae. The class given is functional.
Experiment [7] deals with Tetranychus urticae. The experiment is described as follows: Insecticidal activity against spirodiclofen-susceptible Tetranychus urticae LS-VL (two-spotted spider mite) eggs in kidney bean leaf disks assessed as mortality after 1 day. The class given is functional. The conditions noted are these: foliar, 24 h.
Experiment [8] relates to Tetranychus urticae. Put plainly: Insecticidal activity against spirodiclofen-resistant Tetranychus urticae SR-VP (two-spotted spider mite) eggs in kidney bean leaf disks assessed as mortality measured after 1 day. In kind it is functional.
Experiment [9] concerns Tetranychus urticae. Put plainly: Insecticidal activity against spirodiclofen-resistant Tetranychus urticae SR-VP (two-spotted spider mite) larvae maintained on bean plants sprayed with 5000 mg/L spirodiclofen assessed as mortality. In kind it is functional.
The test system of experiment [10] is Tetranychus urticae. Put plainly: Insecticidal activity against haploid F2 progeny generated from reciprocal cross between male Tetranychus urticae LS-VL (two-spotted spider mite) with female Tetranychus urticae SR-VP in kidney bean leaf disk assessed as mortality. The following applies: foliar. The class given is functional.
Experiment [11] has as its system Tetranychus urticae. The experiment is described as follows: Insecticidal activity against diploid F1 progeny generated from reciprocal cross between female Tetranychus urticae LS-VL (two-spotted spider mite) with male Tetranychus urticae SR-VP in kidney bean leaf disk assessed as mortality. In kind it is functional.
The test system of experiment [12] is Tetranychus urticae. Put plainly: Insecticidal activity against haploid F2 progeny generated from reciprocal cross between female Tetranychus urticae LS-VL (two-spotted spider mite) with male Tetranychus urticae SR-VP in kidney bean leaf disk assessed as mortality. In kind it is functional. The following applies: foliar.
Experiment [13] relates to Tetranychus urticae. Put plainly: Insecticidal activity against diploid F1 progeny generated from reciprocal cross between male Tetranychus urticae LS-VL (two-spotted spider mite) with female Tetranychus urticae SR-VP in kidney bean leaf disk assessed as mortality. In kind it is functional.
The test system of experiment [14] is Tetranychus urticae. Put plainly: Insecticidal activity against spirodiclofen-resistant Tetranychus urticae SR-VP (two-spotted spider mite) larvae maintained on bean plants sprayed with 5000 mg/L spirodiclofen assessed as mortality measured at 6 months after mite transfer onto unsprayed bean plants. In kind it is functional.
The subject of experiment [15] is Tetranychus urticae. Put plainly: Resistance ratio of LC50 for spirodiclofen-resistant Tetranychus urticae SR-VP (two-spotted spider mite) larvae reared under continuous pressure of 5000 mg/L spirodiclofen for 5 months to LC50 for spirodiclofen-susceptible Tetranychus urticae LS-VL (two-spotted spider mite) larvae. The class given is functional.
In experiment [16] the test system is Tetranychus urticae. The experiment is described as follows: Resistance ratio of LC50 for spirodiclofen-resistant Tetranychus urticae SR-VP (two-spotted spider mite) eggs to LC50 for spirodiclofen-susceptible Tetranychus urticae LS-VL (two-spotted spider mite) eggs. In kind it is functional.
Experiment [17] concerns Tetranychus urticae. The experiment is described as follows: Insecticidal activity against spirodiclofen-resistant Tetranychus urticae SR-VP (two-spotted spider mite) larvae reared under continuous pressure of 5000 mg/L spirodiclofen for 5 months in kidney bean leaf disks assessed as mortality measured after 1 day. The following applies: foliar, 24 h. The class given is functional.

The test system of experiment [18] is Tetranychus urticae. The experiment is described as follows: Synergism factor, ratio of LC50 for Tetranychus urticae SR-VP (two-spotted spider mite) larvae to LC50 for Tetranychus urticae SR-VP larva in presence of 10 mg/L esterase inhibitor, DEF. The class given is functional.
The subject of experiment [19] is Tetranychus urticae. The experiment is described as follows: Insecticidal activity against Tetranychus urticae SR-VP (two-spotted spider mite) larvae reared under continuous pressure of 5000 mg/L spirodiclofen for 5 months assessed as mortality treated 3-4 hr after 10 mg/L esterase inhibitor, DEF application measured after 1 day. In kind it is functional.
Experiment [20] concerns Tetranychus urticae. The experiment is described as follows: Synergism factor, ratio of LC50 for Tetranychus urticae LS-VL (two-spotted spider mite) larvae to LC50 for Tetranychus urticae LS-VL larva in presence of 10 mg/L esterase inhibitor, DEF. In kind it is functional.
Experiment [21] deals with Tetranychus urticae. The experiment is described as follows: Resistance ratio of LC50 for Tetranychus urticae SR-VP (two-spotted spider mite) larvae reared under continuous pressure of 5000 mg/L spirodiclofen for 5 months in presence of 10 mg/L esterase inhibitor, DEF to LC50 for Tetranychus urticae LS-VL (two-spotted spider mite) larvae in presence of 10 mg/L esterase inhibitor, DEF. In kind it is functional.

Experiment [22] concerns Tetranychus urticae. The experiment is described as follows: Insecticidal activity against Tetranychus urticae LS-VL (two-spotted spider mite) larvae […] assessed as mortality treated 3-4 hr after 10 mg/L esterase inhibitor, DEF application measured after 1 day. The class given is functional.
Experiment [23] deals with Tetranychus urticae. The experiment is described as follows: Synergism factor, ratio of LC50 for Tetranychus urticae LS-VL (two-spotted spider mite) larvae to LC50 for Tetranychus urticae LS-VL larvae in presence of 200 mg/L GSH depleter, DEM. In kind it is functional.
The test system of experiment [24] is Tetranychus urticae. Put plainly: Synergism factor, ratio of LC50 for Tetranychus urticae SR-VP (two-spotted spider mite) larvae to LC50 for Tetranychus urticae SR-VP larvae in presence of 200 mg/L GSH depleter, DEM. The class given is functional.
For experiment [25], the system named is Tetranychus urticae. The experiment is described as follows: Resistance ratio of LC50 for Tetranychus urticae SR-VP (two-spotted spider mite) larvae reared under continuous pressure of 5000 mg/L spirodiclofen for 5 months in presence of 200 mg/L GSH depleter, DEM to LC50 for Tetranychus urticae LS-VL (two-spotted spider mite) larvae in presence of 200 mg/L GSH depleter, DEM. The class given is functional.

For experiment [26], the system named is Tetranychus urticae. The experiment is described as follows: Insecticidal activity against Tetranychus urticae LS-VL (two-spotted spider mite) larvae […] assessed as mortality treated 3-4 hr after 200 mg/L GSH depleter, DEM application measured after 1 day. The class given is functional.

The subject of experiment [27] is Tetranychus urticae. Put plainly: Insecticidal activity against Tetranychus urticae SR-VP (two-spotted spider mite) larvae reared under continuous pressure of 5000 mg/L spirodiclofen for 5 months assessed as mortality treated 3-4 hr after 200 mg/L GSH depleter, DEM application measured after 1 day. In kind it is functional.
For experiment [28], the system named is Tetranychus urticae. The experiment is described as follows: Insecticidal activity against Tetranychus urticae LS-VL (two-spotted spider mite) larvae reared under continuous pressure of 5000 mg/L spirodiclofen for 5 months assessed as mortality treated 3-4 hr after 200 mg/L cytochrome P450 monooxygenase inhibitor, PBO application measured after 1 day.
Experiment [29] has as its system Tetranychus urticae. The experiment is described as follows: Insecticidal activity against Tetranychus urticae SR-VP (two-spotted spider mite) larvae reared under continuous pressure of 5000 mg/L spirodiclofen for 5 months assessed as mortality treated 3-4 hr after 200 mg/L cytochrome P450 monooxygenase inhibitor, PBO application measured after 1 day.

As usually defined, the LC50 is the concentration lethal to half of the exposed cells or organisms. For `CC[C@H](C)[C@H]1O[C@]2(C=C[C@@H]1C)C[C@@H]1C[C@@H](C/C=C(\C)[C@@H](O[C@H]3C[C@H](OC)[C@@H](O[C@H]4C[C@H](OC)[C@@H](O)[C@H](C)O4)[C@H](C)O3)[C@@H](C)/C=C/C=C3\CO[C@@H]4[C@H](O)C(C)=C[C@@H](C(=O)O1)[C@]34O)O2.CO[C@H]1C[C@H](O[C@H]2[C@H](C)O[C@@H](O[C@@H]3/C(C)=C/C[C@@H]4C[C@@H](C[C@]5(C=C[C@H](C)[C@@H](C(C)C)O5)O4)OC(=O)[C@@H]4C=C(C)[C@@H](O)[C@H]5OC/C(=C\C=C\[C@@H]3C)[C@]54O)C[C@@H]2OC)O[C@@H](C)[C@@H]1O` [ABAMECTIN], the LC50 is 0.52 µg/mL in experiment [1] and 0.4 µg/mL in experiment [3]. The RatioLC50 in [2] came to 1.3.

In the case of `CCc1nn(C)c(C(=O)NCc2ccc(C(C)(C)C)cc2)c1Cl` [TEBUFENPYRAD], the LC50 was determined as 138 µg/mL (≈ 412 µM) in [1] and 63.5 µg/mL (≈ 190 µM) in experiment [3]. The RatioLC50 in [2] was 2.2.

With `CCOc1cc(C(C)(C)C)ccc1C1COC(c2c(F)cccc2F)=N1` (stereo not drawn) [ETOXAZOLE], the figures for the 50% lethal concentration (LC50) in experiment [4] and in experiment [5] were 0.61 µg/mL (≈ 1.7 µM) and 0.76 µg/mL (≈ 2.11 µM), respectively. Further, the RatioLC50 in [6] is 0.8.

For the molecule `CCC(C)(C)C(=O)OC1=C(c2ccc(Cl)cc2Cl)C(=O)OC12CCCCC2` [SPIRODICLOFEN], the LC50 came to 8.7 µg/mL (≈ 21.2 µM) in experiment [7]; 17.9 µg/mL (≈ 43.5 µM) in [8] (Tetranychus urticae, SR-VP, foliar, 24 h); 10000 µg/mL (≈ 24300 µM) in experiment [9]; 44 µg/mL (≈ 107 µM) in [10]; 4.9 µg/mL (≈ 11.9 µM) in experiment [5]; 68 µg/mL (≈ 165 µM) in experiment [11] (Tetranychus urticae, foliar). For the same molecule, the LC50 stood at 56 µg/mL (≈ 136 µM) in experiment [12]; 85 µg/mL (≈ 207 µM) in experiment [13] (Tetranychus urticae, foliar); 5930 µg/mL (≈ 14400 µM) in experiment [14]; 1340 µg/mL (≈ 3270 µM) in experiment [17]. Moreover, the LC90 was found to be 150 µg/mL (≈ 365 µM) in experiment [11] and 236 µg/mL (≈ 574 µM) in experiment [13]. Further, the RatioLC50 in experiment [15] came to 277; in [16], 2.

As for `CCCCSP(=O)(SCCCC)SCCCC` [S,S,S,-TRIBUTYLPHOSPHOROTRITHIOATE], the RatioLC50 is 3.3 in experiment [18], 0.8 in experiment [20] and 64 in [21]. The LC50 amounted to 402 µg/mL (≈ 1280 µM) in experiment [19] and 6.3 µg/mL (≈ 20 µM) in experiment [22].

For the molecule `Cc1cc(C)c(C2=C(OC(=O)CC(C)(C)C)C3(CCCC3)OC2=O)c(C)c1` [SPIROMESIFEN], the values for the LC50 in experiment [4] and in experiment [5] were 14.5 µg/mL (≈ 39.1 µM) and 0.79 µg/mL (≈ 2.13 µM), respectively. Besides, the RatioLC50 in experiment [6] was determined as 18.

Consider `CCOC(=O)/C=C\C(=O)OCC` [DIETHYL MALEATE], for which the RatioLC50 in [23] was 0.7; in experiment [24], 1; in experiment [25], 189. Also, the median lethal concentration (LC50) in experiment [26] amounted to 6.9 µg/mL; in [27], 1310 µg/mL.

As for `CC(C)(C)c1ccc(CSc2cnn(C(C)(C)C)c(=O)c2Cl)cc1` [PYRIDABEN], the LC50 came out at 135 µg/mL (≈ 370 µM) in [1] and 156 µg/mL (≈ 427 µM) in experiment [3]. For the same molecule, the RatioLC50 in experiment [2] was determined as 0.9.

Consider `CCCCCCCCCCCCC1=C(OC(C)=O)C(=O)c2ccccc2C1=O` [ACEQUINOCYL], for which the LC50 turned out to be 29.6 µg/mL (≈ 77 µM) in experiment [1] and 7.7 µg/mL (≈ 20 µM) in [3]. For the same molecule, in experiment [2], the RatioLC50 stood at 3.8. In experiment [8], the LC90 is 60 µg/mL (≈ 156 µM).

Turning to `COc1ccc(-c2ccccc2)cc1NNC(=O)OC(C)C` [BIFENAZATE], the LC50 in experiment [1] was 2.4 µg/mL (≈ 7.99 µM); in [3], 1.2 µg/mL (≈ 4 µM). Besides, the RatioLC50 in [2] amounted to 2.

Regarding `CCCCOCCOCCOCc1cc2c(cc1CCC)OCO2` [PIPERONYL BUTOXIDE], the figures for the LC50 in experiment [28] and in [29] were 3.9 µg/mL (≈ 11.5 µM) and 380 µg/mL (≈ 1120 µM), respectively.
